Source: patent US7192956B2, “Methods of treating hormone-related conditions using cyclothiocarbamate derivatives” (Wyeth, priority 2002, dated 2007)

Experiments:
androgen receptor (AR) [1] = target: T1, androgen receptor (AR) (Mus musculus, UniProt P19091); test: Anti-androgenic (AR antagonistic) activity, PRE-tk-luciferase reporter in L929 cells co-treated with DHT; format: cell-based; details: co-treated with 3 nM DHT
T1 construct: the L929 cells which express the AR but not the PR; endogenous in cells; host or cells: L929 cells
T1 sequence (P19091 1-899): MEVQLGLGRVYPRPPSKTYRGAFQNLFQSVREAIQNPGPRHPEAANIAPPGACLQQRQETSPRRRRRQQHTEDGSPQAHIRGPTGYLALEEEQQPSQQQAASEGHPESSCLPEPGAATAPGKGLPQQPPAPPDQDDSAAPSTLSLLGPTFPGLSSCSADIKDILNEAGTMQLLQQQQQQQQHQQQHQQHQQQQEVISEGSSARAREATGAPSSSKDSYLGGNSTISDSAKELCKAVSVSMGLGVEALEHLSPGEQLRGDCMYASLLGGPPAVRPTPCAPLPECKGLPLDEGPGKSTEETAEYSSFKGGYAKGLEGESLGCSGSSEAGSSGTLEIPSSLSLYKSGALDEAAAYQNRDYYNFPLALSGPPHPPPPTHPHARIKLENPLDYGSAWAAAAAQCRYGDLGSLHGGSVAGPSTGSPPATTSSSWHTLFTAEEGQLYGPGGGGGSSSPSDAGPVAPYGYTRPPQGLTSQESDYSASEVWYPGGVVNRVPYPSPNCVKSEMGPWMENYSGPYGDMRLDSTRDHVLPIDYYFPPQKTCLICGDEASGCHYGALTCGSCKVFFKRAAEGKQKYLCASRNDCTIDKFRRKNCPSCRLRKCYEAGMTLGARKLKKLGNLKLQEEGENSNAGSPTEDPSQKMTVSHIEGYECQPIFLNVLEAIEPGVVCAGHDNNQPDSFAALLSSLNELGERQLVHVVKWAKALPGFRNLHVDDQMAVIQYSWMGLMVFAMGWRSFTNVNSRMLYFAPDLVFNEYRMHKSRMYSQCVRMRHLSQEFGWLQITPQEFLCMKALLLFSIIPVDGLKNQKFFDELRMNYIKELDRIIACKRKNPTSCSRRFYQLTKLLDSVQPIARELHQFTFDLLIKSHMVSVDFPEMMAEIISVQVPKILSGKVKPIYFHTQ
Description: (§1) The androgen receptor (AR) agonistic and antagonistic activity of the compositions of the invention in the L929 cells which express the AR but not the PR was evaluated as described in Zhang et al., Steroids, 65(10–11): 637–643 (October–November 2000).
(§2) Cells were plated in 96-well plates at 25,000 cells/well in DMEM (Bio Whittaker) with 10% (v/v) fetal bovine serum (FBS). The next day, cells were infected with the adenovirus PRE-tk-luciferase reporter construct (2×10^9 pfu/ml particles) and kept in DMEM containing 10% charcoal stripped FBS for an additional 24 hours. […] To test the anti-androgenic activity, cells were co-treated with 3 nM DHT. Luciferase activity was measured 24 hours following the treatment.

androgen receptor (AR) [2] = target: T1, androgen receptor (AR); test: AR agonistic activity, PRE-tk-luciferase reporter in L929 cells; format: cell-based; details: at the maximum concentration tested (i.e., 10 nM)
Description: as §1, §2

IC50 (androgen receptor (AR) [1]; L929 cells expressing AR but not PR, PRE-tk-luciferase reporter, luciferase measured 24 hours after treatment): 0.109 µM | antagonistic activity (androgen receptor (AR) [1]; L929 cells, nine point dose response): significant antagonistic activity | agonistic activity (androgen receptor (AR) [2]): only marginal agonistic activity
Compound: Cn1c(C#N)ccc1-c1ccc2c(c1)C(C)(C)OC(=S)N2 [5-(4,4-dimethyl-2-thioxo-1,4-dihydro-2H-3,1-benzoxazin-6-yl)-1-methyl-1H-pyrrole-2-carbonitrile]
